Reference: patent US7094600B2, “Screen for sodium channel modulators” (The Research Foundation of State University of New York, priority 2003, dated 2006)
“And” between values parts separate entries of the source, which are not always exact repeats. Identical values can stand only once. Like-named read-outs stand apart in the source and are kept apart here.

Key:
[1] = molecular target: T1, rNav1.4 Na+ channels (wild-type) (Rattus norvegicus, UniProt P15390); experiment: Whole-cell patch clamp of wild-type rNav1.4 Na+ currents in transfected HEK293t cells; format: cell-based; design: time constant of recovery from inactivated block / block of peak Na+ currents (resting state): dose or concentration left out as unconfirmed; conditions: for time for full recovery from flecainide block (dissociation): holding potential −140 mV, block developed after channel activation
T1 construct: expressed in transfected cells; host or cells: HEK293t, transient, calcium phosphate; pcDNA1/Amp vector

IFM/QQQ mutant channels = conditions: cited from earlier work
[2] = molecular target: T2, hNav1.4-L443C/A444W Na+ channels (Homo sapiens, UniProt P35499, A444W/L443C); experiment: Whole-cell patch clamp of hNav1.4-L443C/A444W mutant Na+ channels in stably transfected HEK293 cells; format: cell-based
T2 construct: full-length hNav1.4 cDNA inserted in the pRc/CMV vector; expressed in transfected cells; pRc/CMV vector

[3] = molecular target: T3, rNav1.4-L435W/L437C/A438W mutant channels (Rattus norvegicus, UniProt P15390, A438W/L435W/L437C); experiment: Whole-cell patch clamp of inactivation-deficient rNav1.4-L435W/L437C/A438W mutant channels in HEK293t cells; format: cell-based
T3 construct: expressed in transfected cells; host or cells: HEK293t, transient, calcium phosphate; pcDNA1/Amp vector

[4] = test system: pronase-treated Na+ channels; conditions: cited from earlier work
[5] = as antiarrhythmic agent; cited from earlier work
[6] = 30 μM flecainide, 10 s conditioning prepulses -180 to -10 mV, test +30 mV
[7] = 10 μM, external, 100-ms test pulse at +50 mV

T3 sequence (P15390 whole entry L435W/L437C/A438W): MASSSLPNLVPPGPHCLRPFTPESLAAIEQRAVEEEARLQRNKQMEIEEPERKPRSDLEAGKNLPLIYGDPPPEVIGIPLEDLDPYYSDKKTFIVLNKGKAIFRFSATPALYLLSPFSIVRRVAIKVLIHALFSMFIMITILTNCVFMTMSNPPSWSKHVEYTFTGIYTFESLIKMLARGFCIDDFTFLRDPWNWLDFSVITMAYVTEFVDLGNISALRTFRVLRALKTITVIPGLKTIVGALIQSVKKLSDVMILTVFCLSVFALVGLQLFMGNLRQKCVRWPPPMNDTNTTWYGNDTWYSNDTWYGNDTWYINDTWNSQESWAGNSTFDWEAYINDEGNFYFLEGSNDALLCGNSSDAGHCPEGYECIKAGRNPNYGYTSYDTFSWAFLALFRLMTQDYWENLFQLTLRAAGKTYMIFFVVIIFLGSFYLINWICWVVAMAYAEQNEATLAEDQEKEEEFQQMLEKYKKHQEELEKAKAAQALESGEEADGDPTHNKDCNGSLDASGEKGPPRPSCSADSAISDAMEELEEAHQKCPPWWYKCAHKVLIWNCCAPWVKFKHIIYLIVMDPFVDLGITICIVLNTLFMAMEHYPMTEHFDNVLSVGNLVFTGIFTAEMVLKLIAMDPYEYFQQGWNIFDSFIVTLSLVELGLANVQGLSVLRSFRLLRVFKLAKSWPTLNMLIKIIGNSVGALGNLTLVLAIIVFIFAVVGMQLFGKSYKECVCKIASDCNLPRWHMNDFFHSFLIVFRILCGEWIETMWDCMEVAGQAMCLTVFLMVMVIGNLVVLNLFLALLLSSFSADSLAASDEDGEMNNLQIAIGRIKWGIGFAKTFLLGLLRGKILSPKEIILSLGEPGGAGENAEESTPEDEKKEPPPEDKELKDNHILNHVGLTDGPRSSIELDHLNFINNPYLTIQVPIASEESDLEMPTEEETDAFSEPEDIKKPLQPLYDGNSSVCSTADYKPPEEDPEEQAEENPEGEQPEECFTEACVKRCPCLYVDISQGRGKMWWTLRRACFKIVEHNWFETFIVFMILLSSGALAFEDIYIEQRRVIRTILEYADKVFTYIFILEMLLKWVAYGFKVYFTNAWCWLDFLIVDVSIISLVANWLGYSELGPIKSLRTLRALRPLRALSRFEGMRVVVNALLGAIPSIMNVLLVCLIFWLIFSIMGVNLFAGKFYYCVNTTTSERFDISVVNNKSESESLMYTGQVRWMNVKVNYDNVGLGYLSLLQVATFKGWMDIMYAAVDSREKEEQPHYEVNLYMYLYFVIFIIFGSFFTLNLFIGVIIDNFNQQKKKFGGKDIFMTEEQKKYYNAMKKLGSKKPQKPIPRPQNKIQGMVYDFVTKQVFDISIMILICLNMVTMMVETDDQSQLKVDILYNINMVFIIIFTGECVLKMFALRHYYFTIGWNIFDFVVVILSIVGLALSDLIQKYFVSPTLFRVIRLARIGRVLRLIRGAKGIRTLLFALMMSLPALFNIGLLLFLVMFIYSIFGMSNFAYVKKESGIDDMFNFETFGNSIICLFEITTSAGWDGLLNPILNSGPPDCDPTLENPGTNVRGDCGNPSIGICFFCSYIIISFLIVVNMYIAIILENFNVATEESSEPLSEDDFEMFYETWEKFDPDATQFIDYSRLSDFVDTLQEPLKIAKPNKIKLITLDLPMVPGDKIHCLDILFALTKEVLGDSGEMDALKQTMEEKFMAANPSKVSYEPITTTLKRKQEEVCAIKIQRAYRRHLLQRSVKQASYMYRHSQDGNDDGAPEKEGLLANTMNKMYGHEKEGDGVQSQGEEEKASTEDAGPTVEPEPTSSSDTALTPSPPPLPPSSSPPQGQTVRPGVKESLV
T3 sequence (Q00954 19-218 partner): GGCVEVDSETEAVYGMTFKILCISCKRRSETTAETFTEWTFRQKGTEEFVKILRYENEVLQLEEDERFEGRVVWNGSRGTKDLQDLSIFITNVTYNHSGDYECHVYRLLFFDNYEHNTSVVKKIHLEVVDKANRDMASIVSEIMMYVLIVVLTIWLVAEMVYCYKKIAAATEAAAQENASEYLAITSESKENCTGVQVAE
T1 sequence (P15390 whole entry): as the sequence (P15390 whole entry L435W/L437C/A438W) above, with W435L, C437L, W438A counted along it
T1 sequence (Q00954 19-218 partner): as the sequence (Q00954 19-218 partner) above
T2 sequence (P35499 whole entry L443C/A444W): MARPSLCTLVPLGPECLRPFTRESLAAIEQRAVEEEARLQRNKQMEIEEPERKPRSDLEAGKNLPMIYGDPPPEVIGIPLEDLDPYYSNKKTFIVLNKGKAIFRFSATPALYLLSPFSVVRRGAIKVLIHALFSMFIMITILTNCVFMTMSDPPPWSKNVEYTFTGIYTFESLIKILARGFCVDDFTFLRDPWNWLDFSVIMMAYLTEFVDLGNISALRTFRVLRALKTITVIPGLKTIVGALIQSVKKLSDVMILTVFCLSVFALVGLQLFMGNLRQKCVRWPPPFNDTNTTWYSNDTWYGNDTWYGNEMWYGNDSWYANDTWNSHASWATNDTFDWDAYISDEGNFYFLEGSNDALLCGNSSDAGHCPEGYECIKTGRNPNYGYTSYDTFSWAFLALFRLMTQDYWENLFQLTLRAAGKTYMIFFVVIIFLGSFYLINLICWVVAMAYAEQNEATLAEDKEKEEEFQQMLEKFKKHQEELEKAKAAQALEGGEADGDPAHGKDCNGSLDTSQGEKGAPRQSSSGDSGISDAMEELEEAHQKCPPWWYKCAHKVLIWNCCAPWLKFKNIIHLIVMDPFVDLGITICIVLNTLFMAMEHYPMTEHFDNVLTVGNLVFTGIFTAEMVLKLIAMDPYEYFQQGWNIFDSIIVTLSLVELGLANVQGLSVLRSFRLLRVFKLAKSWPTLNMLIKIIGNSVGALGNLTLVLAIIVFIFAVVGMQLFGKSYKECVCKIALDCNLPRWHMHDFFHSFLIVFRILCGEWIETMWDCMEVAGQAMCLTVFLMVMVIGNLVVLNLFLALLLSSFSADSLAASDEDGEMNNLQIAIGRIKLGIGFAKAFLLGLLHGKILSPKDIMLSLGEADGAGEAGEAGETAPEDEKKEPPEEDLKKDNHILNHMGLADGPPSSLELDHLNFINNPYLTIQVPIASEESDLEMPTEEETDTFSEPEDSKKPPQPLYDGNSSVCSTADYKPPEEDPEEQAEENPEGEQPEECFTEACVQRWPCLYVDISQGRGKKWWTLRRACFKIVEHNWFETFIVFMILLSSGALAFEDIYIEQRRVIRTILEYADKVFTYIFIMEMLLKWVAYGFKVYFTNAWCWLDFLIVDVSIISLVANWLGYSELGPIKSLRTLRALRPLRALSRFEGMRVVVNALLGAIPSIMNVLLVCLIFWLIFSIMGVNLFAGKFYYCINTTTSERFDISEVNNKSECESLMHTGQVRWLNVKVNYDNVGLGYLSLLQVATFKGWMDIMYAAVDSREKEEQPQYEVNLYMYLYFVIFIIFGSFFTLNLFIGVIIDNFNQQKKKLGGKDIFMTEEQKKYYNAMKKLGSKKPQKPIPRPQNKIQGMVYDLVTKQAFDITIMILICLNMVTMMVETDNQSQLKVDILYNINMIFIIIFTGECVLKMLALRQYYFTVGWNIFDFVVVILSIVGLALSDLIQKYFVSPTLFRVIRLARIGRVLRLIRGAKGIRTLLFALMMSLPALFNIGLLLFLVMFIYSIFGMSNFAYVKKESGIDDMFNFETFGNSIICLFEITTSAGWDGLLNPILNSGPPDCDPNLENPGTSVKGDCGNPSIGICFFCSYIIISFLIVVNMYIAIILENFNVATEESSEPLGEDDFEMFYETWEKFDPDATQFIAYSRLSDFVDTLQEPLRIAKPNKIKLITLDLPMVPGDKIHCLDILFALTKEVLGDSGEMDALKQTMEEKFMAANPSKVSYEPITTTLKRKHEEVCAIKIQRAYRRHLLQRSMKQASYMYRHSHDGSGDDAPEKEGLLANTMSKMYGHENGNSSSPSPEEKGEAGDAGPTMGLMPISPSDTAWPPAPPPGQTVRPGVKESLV

For `O=C(NCC1CCCCN1)c1cc(OCC(F)(F)F)ccc1OCC(F)(F)F` (stereo not drawn) [flecainide], the IC50 [1] was roughly 400 µM, the “time constant of recovery from inactivated block” value [1] was greater than 100 s and the “V0.5 of Boltzmann fit, voltage dependence of flecainide block” value [1, 6] was −57.3±2.7 mV. For the same compound, the “kE (slope factor) of Boltzmann fit, voltage dependence of flecainide block” value [1, 6] was 17.6±2.1 mV, the “time for flecainide block to reach steady state” value ([1]; 30 mM flecainide, +50 mV pulses at 30-s interval) was 5 to 7 min and the inhibition at 30000 µM ([1]; HEK-293T, read-out: peak currents inhibited after flecainide block reached steady state) was roughly 50%. For the same compound, the “time constant of development of the inactivated block” value ([1]; at −50 mV) was 10.9 ± 1.3 s, the “block of peak Na+ currents (resting state)” value ([1]; cell not stimulated repetitively in 1,000 s) was roughly 20% and the “time for full recovery from flecainide block (dissociation)” value [1] was ≥ 1,000 s. For the same compound, the “time for full recovery from flecainide block (dissociation)” value ([1]; listed as Flecainide) was “up to 10,000 s”, the additional use-dependent block ([1]; repetitive pulses at 5 Hz for 60 pulses) was roughly 50% and the “difference between the high and low flecainide affinities” value ([1]; −20 mV vs −140 mV conditioning) was “less than 3 fold”. For the same compound, the “open-channel block in IFM/QQQ mutant channels” value (IFM/QQQ mutant channels) was “weak open-channel block”, the “block of persistent late Na+ currents” value [2, 7] was “strong block” and the “time to steady state block at each concentration” value ([3]; 140 ms test pulse to +30 mV every 30 seconds, 0.1 to 30 μM) was no more than 5 min. The “block of the maintained Na+ currents” value ([3]; at +50 mV, 0.1 to 30 μM flecainide) was “strong time-dependent block”, the “time constant of recovery from the open channel block” value ([3]; at −140 mV) was 11.2 s and the IC50 ([3]; conditioning pulse −50 mV, 10 s, read-out: IC50 with a conditioning pulse at −50 mV for 10 s (estimated block at the peak current)) was 4.1 ± 0.1 µM. The Kd ([3]; from off-rate/on-rate, read-out: calculated dissociation constant (open channel)) was 0.81 µM, the “difference of resting and open channel affinities” value ([3]; inactivation-deficient mutant channels) was roughly 500 fold and the IC50 ([3]; open channel, read-out: IC50 for the open block (estimated block at the end of the pulse)) was 0.61 ± 0.07 µM. The IC50 ([3]; resting channel, holding −140 mV, read-out: IC50 for the resting block (estimated block at the peak current)) was 208 µM and 307 µM, the “on-rate constant with the open channel” value ([3]; test pulse +30 mV, slope of 1/τ vs concentration) was 1.49e+07 M⁻¹ s⁻¹ and the “off-rate constant with the open channel” value ([3]; test pulse +30 mV, y-intercept of 1/τ vs concentration) was 12.2 s⁻¹.

In the case of `NC1=N[C@H](O)[C@H]2[C@H]3O[C@]4(O)O[C@@H]([C@@H](O)[C@@]2(N1)[C@@H]4O)[C@]3(O)CO` [TTX, Tetrodotoxin], the Hill coefficient [2] is reported as 1.09±0.04 and the “time-dependent block by TTX” value [2] is reported as “no evidence of a time-dependent block”.

For `CC[N+](CC)(CC)CC(=O)Nc1c(C)cccc1C` [QX-314], the “block of inactivation-deficient Na+ currents” value [4] is given as “does not block”.

With `CCCNC[C@H](O)COc1ccccc1C(=O)CCc1ccccc1.Cl` [(S)-propafenone, (S)-Propafenone-HCl] the “inhibition of peak Na+ currents” value ([2]; 10 μM, external) was “also inhibited, but to a lesser extent” and the “block of persistent late Na+ currents” value [2, 7] was “potently blocks”.

For batrachotoxin [BTX], the “activation threshold of BTX-modified Na+ currents” value ([2]; 5 μM BTX in pipette solution) was −80 mV, the “effect on fast and slow inactivation” value ([2]; 5 μM BTX in pipette solution) was “completely eliminates the fast and the slow inactivation” and the “shift of activation threshold” value ([2]; 5 μM BTX in pipette solution, after 400 repetitive pulses at +50 mV, 1 Hz) was roughly −40 mV.

With `CCCCc1oc2ccccc2c1C(=O)c1cc(I)c(OCCN(CC)CC)c(I)c1` [amiodarone] the “block of persistent late Na+ currents” value [2] was “Most, if not all, persistent late currents were inhibited”, the “inhibition of peak Na+ currents” value [2] was “also reduced slowly, but again to a lesser extent” and the “time to steady-state block of late Na+ currents (wash-in)” value [2] was 15 min. For the same compound, the wash-out of block [2] was “slow and incomplete”.

In the case of `CC(C)N(CCC(C(N)=O)(c1ccccc1)c1ccccn1)C(C)C` (stereo not drawn) [disopyramide], the “open-channel block in IFM/QQQ mutant channels” value (IFM/QQQ mutant channels) is given as “weak open-channel block”.

In the case of `Cc1cccc(C)c1OCC(C)N` (stereo not drawn) [mexiletine], the therapeutic plasma concentration [5] is given as 2.8 to 11.2 µM and the “block of persistent late Na+ currents” value [2, 7] is given as “strong block”.
